Measurements reported in US10668032B2 (SyneuRx International (Taiwan) Corp., priority 2016, dated 2020).

Experiments:
SH-SY5Y cells = assay: MPTP toxicity in SH-SY5Y cells, MTT assay; format: cell-based, human; details: MPTP 750 μM, 24 hrs
Experimental: SH-SY5Y, the human neuroblastoma cell line, was incubated with MPTP (750 μM) for 24 hrs.

[1] = test system: primary cortical neuronal culture; assay: Detection of cellular reactive oxygen species (CellROX) after 3-NP in primary cortical culture; format: cell-based, rat; details: for ROS production induced by 3-NP: 0.5 mM, incubated 24 hours before 3-NP
Experimental: Reactive oxygen species (ROS) are detected on primary cortical neuronal culture by CellROX Oxidative Reagents (catalog number 10444, Life Technologies Corp. USA). […] The cells were then exposed to 2.5 mM 3-NP for 24 hours. Subsequently, […] CellROX Reagent was added, and then incubated for […]. CellROX Green Reagent is a DNA dye, and upon oxidation, it binds to DNA; thus, its signal is localized in the nucleus and mitochondria. ROS were quantified by fluorescence intensity. The samples were observed under a laser scanning confocal microscope Zeiss LSM700 (Zeiss, Germany) equipped with filter sets to detect fluorescent signal.

cortical neurons = assay: Mitochondrial respiration, XF Cell Mito Stress Test (OCR); format: cell-based, rat; details: 3 mM, pre-treatment 24 h
Experimental: The preparation of primary cortical culture was as described before, but the cells were seeded on XF 96 well cell culture microplates. On the day of assay, culture media were changed to XF Assay medium (Seahorse Biosciences, USA). Prior to assay, plates were transferred into an incubator with CO2 supplementation at 37° C. and kept for 1 hour. The overall OCR was calculated.
The XF Cell Mito Stress Test modulates respiration that target components of the electron transport chain (ETC) in the mitochondria to reveal key parameters of metabolic function. The modulators (oligomycin, FCCP, and a mix of rotenone and antimycin A) are serially injected to measure ATP production, maximal respiration, and non-mitochondrial respiration. Proton leak and spare respiratory capacity are then calculated using these parameters.

[2] = test system: GFAP positive cells in cortical culture; assay: GFAP immunocytochemistry in cortical culture after Aβ25-35; format: cell-based, rat; details: post-treatment 1 mM
Experimental: Cells were fixed in 4% PFA and washed in PBS, blocked with 2% bovine serum albumin (BSA) and 0.03% Triton X-100 in PBS, and then incubated with mouse monoclonal antibody against microtubule-associated protein-2 (MAP-2) (Cat. No. MAB378, 1:150, CHEMICON International, Inc., Temecula, Calif., USA); rabbit polyclonal antibody against GFAP (Cat. No. Z0334, 1:600, DakoCytomation Denmark A/S, Denmark). The goat anti-mouse IgG Alexa Fluor-conjugated secondary antibodies (1:500; Cat No. A11003, Thermo Scientific); anti-rabbit IgG Alexa Fluor-conjugated secondary antibodies (1:500; Thermo Scientific) were applied respectively to recognize the primary antibodies of the MAP-2 and GFAP.
The coverslips were observed under a digital imaging fluorescence microscope (Olympus BX61; Japan) equipped with filter sets to detect the corresponding fluorescence signals.
Glial fibrillary acidic protein (GFAP) is an intermediate filament protein expressed by cells in the CNS, and is also recognized as an astrocyte maturation marker. Upregulation of GFAP, indicating gliosis, is commonly observed after CNS lesion; therefore, expression of GFAP could be useful to understand the state of neurological diseases.

[3] = test system: cortical cells with Aβ25-35 exposure; assay: Aβ25-35 cytotoxicity with or without NMDA receptor antagonist MK801, cell survival
Experimental: Aβ25-35 (Cat. No. A4559, Sigma) was dissolved in autoclaved ddH2O to make a stock solution of 2 mM, dispensed into aliquots, and immediately stored at −80° C. until use.
In this study, the application of MK801 could reveal whether the neuroprotective effects of drugs were mediated by NMDA receptor.

primary cortical neurons [4] = assay: 3-NP induced toxicity in primary cortical culture (Hoechst staining, MAP-2 immunocytochemistry); format: cell-based, rat; details: exposure to 3-NP alone (2.5 mM, 24 h); untreated 0.1
Experimental: Primary cortical cultures were prepared from embryonic day 18 (E18) fetal Sprague Dawley (SD) rat brains. The cells were maintained in Neurobasal medium supplemented with B27 (GIBCO/Life Technologies of Thermo Fisher Scientific Corporation) at 37° C. for 7 days to allow growth of dendrites before experimentation.
3-NP (Cat. No. 73803, Sigma, St. Louis, Mo., USA) was dissolved in phosphate-buffered saline (PBS) as a stock solution of 1 M and adjusted to pH 7.4 with 10 M sodium hydroxide. The 3-NP stock solution was then dispensed into 1-ml aliquots, protected from light, and stored at −20° C. until use.
Hoechst staining is used to assess the extent of the cell survival. Cells were fixed in 4% paraformaldehyde (PFA) in phosphate-buffered saline (PBS), incubated with the Hoechst 33342 diluted in PBS (1:1000) for 5-15 minutes. The Hoechst staining is used to assess the extent of the cell survival after the exposure to 2.5 mM 3-NP for 24 hours.
Cells were fixed in 4% PFA and washed in PBS, blocked with 2% bovine serum albumin (BSA) and treated by 0.03% Triton X-100 in PBS, before being incubated with mouse monoclonal antibody against microtubule-associated protein-2 (MAP-2) in 1:150 dilution (Cat. No. MAB378, CHEMICON International, Inc., Temecula, Calif., USA). The goat anti-mouse IgG Alexa fluor-conjugated secondary antibodies (Cat No. A11003, Thermo Scientific) in 1:500 dilution were applied to recognize the primary antibodies of the MAP-2. For confocal microscopy, the coverslips were observed under a laser-scanning confocal microscope (Zeiss LSM700; Oberkochen, Germany) equipped with filter sets to detect the corresponding fluorescent signals.
The cells were then exposed to 2.5 mM 3-NP for 24 hours.
Quantitative analysis was also performed to assess the extents of cell death. At least three vision fields were randomly selected and the averaged numbers of dead cells and all nuclei per vision field on each coverslip were calculated.

primary cortical neurons [5] = assay: Aβ25-35 cytotoxicity in primary cortical culture, cell survival (MTT); details: 10 μM Aβ 25-35 for 2 days, then drug 1 mM for 4 days; vs no drug treatment
Experimental: MTT assay was used to assess the extents of cell survival. MTT (3-(4,5-dimethylthiazol-2-yl)-2,5-diphenyltetrazolium bromide) was added to the culture, incubated at 37° C. for 4 hours. Insoluble purple formazan products were yield by living cells. The colorimetric method was used to quantify the surviving cells, and “cell survival (%)” was defined as the mean numbers of surviving cells.
Primary cortical cultures were prepared as previous described. Aβ25-35 (Cat. No. A4559, Sigma) was dissolved in autoclaved ddH2O to make a stock solution of 2 mM, dispensed into aliquots, and immediately stored at −80° C. until use.

Row | SMILES | ROS production induced by 3-NP [1] | spare respiratory capacity (cortical neurons) | number of GFAP positive cells after Aβ25-35 exposure [2] | also measured
1 | CN1CC=C(c2ccccc2)CC1 [MPTP, 1-methyl-4-phenyl-1,2,3,6-tetrahydropyridine, reference compound] | – | – | – | cell number reduction (SH-SY5Y cells): about 50%
2 | O=C([O-])c1ccccc1.[Na+] [sodium benzoate, reference compound] | reduce the amount of cellular ROS | less effective than LiBen | did not influence | protective effect in the presence of MK801 ([3]; 1 mM, MK801 10 μM): blocked; cell survival with Aβ25-35 exposure ([3]; post-treatment 1 mM, MK801 0 μM): elevate the cell survival
3 | O=C(O)CC[N+](=O)[O-] [3-NP, 3-Nitropropionic acid, reference compound] | – | – | – | death index (ratio of dead cells to survived cells) (primary cortical neurons [4]): 0.4; increase of ROS production ([1]; 3-NP alone): more than 50%
4 | [Cl-].[Li+] [lithium chloride, reference compound] | reduce the amount of cellular ROS | less effective than LiBen | significantly reduced | cortical cell survival after Aβ25-35 (primary cortical neurons [5]): statistical improvement
